Laboratory results published in ChEMBL document CHEMBL2203042, “Novel bivalent ligands for D2/D3 dopamine receptors: Significant co-operative gain in D2 affinity and potency” (ACS Med Chem Lett, 2012).

Legend:
D(2) dopamine receptor = D(2) dopamine receptor (Rattus norvegicus, UniProt P61169); assay: Displacement of [3H]spiperone from rat cloned dopamine D2L receptor expressed in HEK-293 cells by competition binding assay; type: cell-based, HEK293
D(3) dopamine receptor = D(3) dopamine receptor (Rattus norvegicus, UniProt P19020); assay: Displacement of [3H]spiperone from rat cloned dopamine D3 receptor expressed in HEK-293 cells by competition binding assay; type: cell-based, HEK293
D(3) dopamine receptor, sequence (P19020 whole entry): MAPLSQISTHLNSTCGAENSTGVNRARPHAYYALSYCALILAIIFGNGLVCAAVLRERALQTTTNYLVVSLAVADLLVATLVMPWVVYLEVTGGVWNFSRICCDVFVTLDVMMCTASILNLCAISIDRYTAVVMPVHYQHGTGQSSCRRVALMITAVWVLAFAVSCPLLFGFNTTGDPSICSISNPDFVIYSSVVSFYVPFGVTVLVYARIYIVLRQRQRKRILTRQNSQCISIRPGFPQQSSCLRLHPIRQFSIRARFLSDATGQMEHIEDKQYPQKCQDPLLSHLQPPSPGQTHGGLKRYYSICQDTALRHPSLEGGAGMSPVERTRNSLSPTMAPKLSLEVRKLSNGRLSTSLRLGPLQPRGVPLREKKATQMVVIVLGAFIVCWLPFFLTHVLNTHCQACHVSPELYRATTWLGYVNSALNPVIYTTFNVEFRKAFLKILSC

Rattus norvegicus = species on record: Rattus norvegicus; assay: Selectivity ratio of Ki for rat cloned dopamine D2L receptor to Ki for rat cloned dopamine D3 receptor

D(2) dopamine receptor, sequence (P61169 whole entry): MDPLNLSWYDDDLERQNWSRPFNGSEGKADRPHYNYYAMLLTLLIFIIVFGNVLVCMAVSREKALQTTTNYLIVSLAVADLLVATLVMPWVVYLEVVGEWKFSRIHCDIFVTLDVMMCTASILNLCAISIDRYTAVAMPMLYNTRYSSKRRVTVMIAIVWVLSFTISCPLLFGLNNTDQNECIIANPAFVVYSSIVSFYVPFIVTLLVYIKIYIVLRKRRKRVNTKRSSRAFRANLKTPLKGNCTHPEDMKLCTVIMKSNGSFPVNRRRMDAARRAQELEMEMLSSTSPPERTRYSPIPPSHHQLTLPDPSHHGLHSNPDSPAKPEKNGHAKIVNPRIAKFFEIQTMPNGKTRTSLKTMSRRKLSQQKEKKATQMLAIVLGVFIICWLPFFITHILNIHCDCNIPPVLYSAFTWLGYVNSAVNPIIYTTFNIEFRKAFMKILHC

Ki (D(2) dopamine receptor) [nM]	Ki (D(3) dopamine receptor) [nM]	Ratio Ki (Rattus norvegicus)	Compound
11	10	1	CCCN(CCCCCCCCCCCCN(CCC)[C@H]1CCc2c(O)cccc2C1)[C@H]1CCc2c(O)cccc2C1
70	4	17	CCCN(CCCCN(CCC)[C@H]1CCc2c(O)cccc2C1)[C@H]1CCc2c(O)cccc2C1
5.9	2.2	2.7	CCCN(CCCCCCN(CCC)[C@H]1CCc2c(O)cccc2C1)[C@H]1CCc2c(O)cccc2C1
75	3.6	21	CCCN(CCCCCN(CCC)[C@H]1CCc2c(O)cccc2C1)[C@H]1CCc2c(O)cccc2C1
16	1.1	14	CCCN(CCN(CCC)[C@H]1CCc2c(O)cccc2C1)[C@H]1CCc2c(O)cccc2C1
3.9	1.1	3.6	CCCN(CCCCCCCN(CCC)[C@H]1CCc2c(O)cccc2C1)[C@H]1CCc2c(O)cccc2C1
140	23	6.1	CCCN(CCCCCCCCCc1ccccc1)[C@H]1CCc2c(O)cccc2C1
55	31	1.7	CCCN(CCCCCCCCCCCCCCN(CCC)[C@H]1CCc2c(O)cccc2C1)[C@H]1CCc2c(O)cccc2C1

Compound	Ki (D(2) dopamine receptor) [nM]	Ki (D(3) dopamine receptor) [nM]	Ratio Ki (Rattus norvegicus)
CCCCCCCCCN(CCC)[C@H]1CCc2c(O)cccc2C1	69	7.3	9.4
